Measured values published in patent publication US20250313574A1, “SIALIC ACID DERIVATIVES AND METHODS OF USING SAME” (EISAI R&D MANAGEMENT CO., LTD., priority 2022, published 2025).

What was measured:
[1] = molecular target: Recombinant Human Siglec-3/CD33 protein (His-CD33) (Homo sapiens (Human), UniProt P20138); test: Differential scanning fluorimetry (DSF) thermal shift assay; type: binding
Protocol: In the DSF assay, as the temperature increases, the protein gets gradually unfolded, exposing hydrophobic regions in which a fluorescent dye binds causing the fluorescence signal to increase. The midpoint of the unfolding transitions is called the thermal melt (Tm) or denaturation temperature and the Tm was defined as the peak apex in the derivative curve. Here, the Tm temperature of CD33 in the presence and absence of A-001 at a concentration of 50 μM was examined.
Recombinant Human Siglec-3/CD33 protein was purchased from Acros (catalog no. CD3-H5226) and reagents used in this study are shown in the Table 1 below.
Lyophilized CD33 protein was received in 1 mg aliquots from Acros. The protein was diluted with 2.5 mL of sterile water to a concentration of 400 μg/mL (14.5 μM), aliquoted into 138 μL aliquots and stored as at −20° C. On the day of analysis, the protein was thawed and […] solution was diluted to […] using buffer containing 133 mM NaCl, 133 mM phosphate buffered solution and 13.9× Sypro Orange dye in water in a quantity to cover the amount of samples tested on the day of the analysis.
200 μM stock solutions of A-001 containing 0.2% DMSO in water was supplied by compound management in a 384-well plate format.
Sample matrix were prepared by adding 7.5 μL of the protein buffer stock solution followed by addition of 2.5 μL of the 200 μM compound solutions in 384-well PCR plates to give a final volume of 10 μL per well consisting of 0.5 μM CD33 protein, 100 mM phosphate buffered solution pH 7.4, 100 mM NaCl, 10× SYPRO orange dye and 50 μM compound concentration (final DMSO concentration ˜0.2%). Using the Applied Biosystems® Protein Thermal Shift software (algorithm version 1.3.), the denaturation temperature or thermal melt (Tm) of the unbound and ligand bound CD33 protein was automatically assigned and the difference in thermal melt (ΔTm D) was calculated using the derivative curve by the Protein Thermal Shift software.
Recombinant human CD33 protein (0.5 μM) was incubated under buffered conditions in the presence of SYPRO orange dye, a temperature gradient was applied and a thermogram was produced by monitoring the fluorescence. The Tm was defined as the peak apex in the derivative curve in the study. […] Addition of […] of A-001 (Blue lines) to the CD33 protein induced significant Tm increases (ΔTm D) of 12.2±0.7° C.

[2] = molecular target: Recombinant human CD33 protein (Homo sapiens (Human), UniProt P20138); test: CD33 competitive binding assay for HTS drug screen (fluorescent multivalent sialic acid probe)
Recombinant human CD33 protein, sequence (P20138 18-259): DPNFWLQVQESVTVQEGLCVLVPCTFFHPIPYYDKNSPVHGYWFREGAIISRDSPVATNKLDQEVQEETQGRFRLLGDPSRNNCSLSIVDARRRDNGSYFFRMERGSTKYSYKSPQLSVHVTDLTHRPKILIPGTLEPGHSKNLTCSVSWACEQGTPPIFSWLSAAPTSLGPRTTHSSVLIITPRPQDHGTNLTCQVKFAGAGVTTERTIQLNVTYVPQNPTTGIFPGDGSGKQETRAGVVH
Method in brief: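 Inhibition was read as reduced retention of a fluorescent multivalent sialic acid complex (final 5 μM neutravidin, 15 μM A-375, 5 μM biotin-4-FITC) on plate-immobilized human CD33. Compound was added first, the probe followed for 30 min at room temperature in PBS with 0.2% Tween-20 and 0.5% BSA, and FITC was measured after a wash.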

[3] = difference in thermal melt of CD33 protein (0.5 μM) with 50 μM compound
[4] = thermal melt shift of 0.5 μM CD33 protein with 50 μM compound

Recombinant Human Siglec-3/CD33 protein (His-CD33), sequence (P20138 18-259): as above

Cc1cc(C(=O)NC[C@@H](O)[C@@H](O)[C@@H]2O[C@@](C/C=C/c3cccc(CNC(=O)c4ccc(Cl)cc4)c3)(C(=O)O)C[C@H](O)[C@H]2NC(=O)Cn2cc(C3CCCCC3)nn2)cc(C)c1O [A-263]
DSF (dTmD) [1, 3]: 3.5 °C
EC50 [2]: 4000 nM

CC(=O)N[C@H]1[C@H]([C@H](O)[C@H](O)CNC(=O)c2cc(C)c(O)c(C)c2)O[C@@](CC2OC(C)(C)O[C@H]2c2cccc(NC(=O)CC(C)(C)C)c2)(C(=O)O)C[C@@H]1O (some centres unmarked) [A-303]
DSF (dTmD) [1, 3]: 4.9 °C
EC50 [2]: 1500 nM

Cc1cc(C(=O)NC[C@@H](O)[C@@H](O)[C@@H]2O[C@@](C/C=C/c3ccc4c(c3)C(NC(=O)C3CCCOC3)CC4)(C(=O)O)C[C@H](O)[C@H]2NC(=O)Cn2cc(C3CCCCC3)nn2)cc(C)c1O (some centres unmarked) [A-284]
DSF (dTmD) [1, 3]: 6.8 °C
EC50 [2]: 1660 nM

CC(=O)N[C@H]1[C@H]([C@H](O)[C@H](O)CNC(=O)c2cn(C)nc2C(F)(F)F)O[C@@](CCN2CCOC[C@@]23CCN(C(=O)OC(C)(C)C)C3)(C(=O)O)C[C@@H]1O [A-174]
DSF (dTmD) [1, 4]: 6.6
EC50 [2]: 1170 nM

Cc1cc(C(=O)NC[C@@H](O)[C@@H](O)[C@@H]2O[C@@](C/C=C/c3cccc(CNC(=O)c4scnc4C)c3)(C(=O)O)C[C@H](O)[C@H]2NC(=O)Cn2cc(C3CCCCC3)nn2)cc(C)c1O [A-276]
DSF (dTmD) [1, 3]: 6.2 °C
EC50 [2]: 2920 nM

Cc1cc(C(=O)NC[C@@H](O)[C@@H](O)[C@@H]2O[C@@](OC3CCCCC3NC(=O)CNC(=O)OCc3ccccc3)(C(=O)O)C[C@H](O)[C@H]2NC(=O)Cn2cc(C3CCCCC3)nn2)cc(C)c1O (some centres unmarked) [A-324]
DSF (dTmD) [1, 3]: 3.2 °C
EC50 [2]: 3670 nM

Cc1cc(C(=O)NC[C@@H](O)[C@@H](O)[C@@H]2O[C@@](C/C=C/c3ccccc3)(C(=O)O)C[C@H](O)[C@H]2NC(=O)Cn2cc(C3CCCCC3)nn2)cc(C)c1O [A-283]
DSF (dTmD) [1, 3]: 2.1 °C
EC50 [2]: 102000 nM

CC(=O)N[C@H]1[C@H]([C@H](O)[C@H](O)CNC(=O)c2cc(C)c(O)c(C)c2)O[C@@](CC2OC(C)(C)O[C@H]2c2cccc(NC(=O)C(=O)[C@H](C)c3cc(C4CC4)no3)c2)(C(=O)O)C[C@@H]1O (some centres unmarked) [A-305]
DSF (dTmD) [1, 3]: 5.4 °C
EC50 [2]: 792 nM

CC(=O)N[C@H]1[C@H]2O[C@](C(=O)O)(CCCCOC[C@@H](NC(=O)C3CCCOC3)COCCOc3c(C)cc(cc3C)C(=O)NC[C@@H](O)[C@H]2O)C[C@@H]1O (some centres unmarked) [A-342]
DSF (dTmD) [1, 3]: 1.5 °C
EC50 [2]: 45400 nM

Cc1cc2cc(C)c1OCCOC[C@@H](NC(=O)C1CCCOC1)COC/C=C/C[C@]1(C(=O)O)C[C@H](O)[C@@H](NC(=O)Cn3cc(C4CCCCC4)nn3)[C@@H](O1)[C@H](O)[C@H](O)CNC2=O (some centres unmarked) [A-338]
DSF (dTmD) [1, 3]: 5.6 °C
EC50 [2]: 3820 nM

CC(=O)N[C@H]1[C@H]([C@H](O)[C@H](O)CNC(=O)c2ccc(O)c(C(F)(F)F)c2)O[C@@](CCN2CCOC[C@@]23CCN(C(=O)OC(C)(C)C)C3)(C(=O)O)C[C@@H]1O [A-147]
DSF (dTmD) [1, 4]: 10.6
EC50 [2]: 127 nM

CC(=O)N[C@H]1[C@H]([C@H](O)[C@H](O)CNC(=O)c2cc(C)c(O)c(C)c2)O[C@@](CCN2CCOC[C@@]23CCN(C(=O)OC(C)(C)C)C3)(C(=O)NS(C)(=O)=O)C[C@@H]1O [A-365]
DSF (dTmD) [1, 3]: −0.3 °C
EC50 [2]: 37500 nM

COc1cc(C(=O)NC[C@@H](O)[C@@H](O)[C@@H]2O[C@@](CCN3CCOC[C@@]34CCN(C(=O)OC(C)(C)C)C4)(C(=O)O)C[C@H](O)[C@H]2NC(C)=O)cc(OC)c1OC [A-148]
DSF (dTmD) [1, 4]: 9.9
EC50 [2]: 197 nM

CC(=O)N[C@H]1[C@H]([C@H](O)[C@H](O)CNC(=O)c2cc(C)c(O)c(C)c2)O[C@@](C/C=C/c2cccc(CNC(=O)c3cccc(Nc4nccs4)c3)c2)(C(=O)O)C[C@@H]1O [A-241]
DSF (dTmD) [1, 3]: 5.3 °C
EC50 [2]: 7970 nM

CC(=O)N[C@H]1[C@H]([C@H](O)[C@H](O)CNC(=O)c2ccc3c(cnn3C)c2)O[C@@](CCN2CCOC[C@@]23CCN(C(=O)OC(C)(C)C)C3)(C(=O)O)C[C@@H]1O [A-124]
DSF (dTmD) [1, 4]: 13.4
EC50 [2]: 28 nM

CC(=O)N[C@H]1[C@H]([C@H](O)[C@H](O)CNC(=O)c2cc(C)c(O)c(C)c2)O[C@@](CCN2C[C@@H](C)OC[C@@]23CCN(C(=O)OC(C)(C)C)C3)(C(=O)O)C[C@@H]1O [A-004]
DSF (dTmD) [1, 4]: 9.1
EC50 [2]: 98 nM

CC(=O)N[C@H]1[C@H]([C@H](O)[C@H](O)CNC(=O)c2cc(C)c(O)c(C)c2)O[C@@](CC2OC(C)(C)O[C@H]2c2cccc(CC(=O)OC(C)(C)C)c2)(C(=O)O)C[C@@H]1O (some centres unmarked) [A-315]
DSF (dTmD) [1, 3]: 4.2 °C
EC50 [2]: 1140 nM

CC(=O)N[C@H]1[C@H]([C@H](O)[C@H](O)CNC(=O)c2cc(Br)c(O)c(Br)c2)O[C@@](CCN2CCOC[C@@]23CCN(C(=O)OC(C)(C)C)C3)(C(=O)O)C[C@@H]1O [A-115]
DSF (dTmD) [1, 4]: 15.1
EC50 [2]: 7 nM

CC(=O)N[C@H]1[C@H]([C@H](O)[C@H](O)CNC(=O)c2cc(C)c(O)c(C)c2)O[C@@](C/C=C/c2cccc(CNC(=O)c3ccc(NS(C)(=O)=O)cc3)c2)(C(=O)O)C[C@@H]1O [A-239]
DSF (dTmD) [1, 3]: 2.2 °C
EC50 [2]: 1120 nM

CC(=O)N[C@H]1[C@H]([C@H](O)[C@H](O)CNC(=O)c2cc(C)c(O)c(C)c2)O[C@@](CC2OC(C)(C)O[C@H]2c2cccc(NC(=O)c3ccc4cc[nH]c4c3)c2)(C(=O)O)C[C@@H]1O (some centres unmarked) [A-302]
DSF (dTmD) [1, 3]: 4.9 °C
EC50 [2]: 1500 nM

CC(=O)N[C@H]1[C@H]([C@H](O)[C@H](O)CNC(=O)c2ccc3[nH]nc(C)c3c2)O[C@@](CCN2CCOC[C@@]23CCN(C(=O)OC(C)(C)C)C3)(C(=O)O)C[C@@H]1O [A-125]
DSF (dTmD) [1, 4]: 13.3
EC50 [2]: 23 nM

Cc1cc(C(=O)NC[C@@H](O)[C@@H](O)[C@@H]2O[C@@](CC(O)[C@@H](O)c3cccc(NC(=O)OC(C)(C)C)c3)(C(=O)O)C[C@H](O)[C@H]2NC(=O)Cn2cc(C3CCCCC3)nn2)cc(C)c1O (some centres unmarked) [A-300]
DSF (dTmD) [1, 3]: 1.6 °C
EC50 [2]: 44600 nM

CC(=O)N[C@H]1[C@H]([C@H](O)[C@H](O)CNC(=O)c2cc(C)c(O)c(C)c2)O[C@@](C/C=C/c2cccc(CNC(=O)c3ccc4[nH]c(C(C)O)nc4c3)c2)(C(=O)O)C[C@@H]1O (some centres unmarked) [A-243]
DSF (dTmD) [1, 3]: 5.4 °C
EC50 [2]: 255 nM

Cc1cc(C(=O)NC[C@@H](O)[C@@H](O)[C@@H]2O[C@@](C/C=C/c3cccc(CNC(=O)C4CCC(NS(C)(=O)=O)CC4)c3)(C(=O)O)C[C@H](O)[C@H]2NC(=O)Cn2cc(C3CCCCC3)nn2)cc(C)c1O (some centres unmarked) [A-281]
DSF (dTmD) [1, 3]: 6.9 °C
EC50 [2]: 1520 nM

CC(=O)N[C@H]1[C@H]([C@H](O)[C@H](O)CNC(=O)c2cc(C)c(O)c(C)c2)O[C@@](CCN2CCOC[C@@]23CCN(C(=O)C2(C)CCCCC2)C3)(C(=O)O)C[C@@H]1O [A-071]
DSF (dTmD) [1, 4]: 11.0
EC50 [2]: 41 nM

CC(=O)N[C@H]1[C@H]([C@H](O)[C@H](O)CNC(=O)c2cc(C)c(O)c(C)c2)O[C@@](CCN2CCOC[C@@]23CCN(C(=O)N2CCC(F)(F)CC2)C3)(C(=O)O)C[C@@H]1O [A-065]
DSF (dTmD) [1, 4]: 6.1
EC50 [2]: 739 nM

CC(=O)N[C@H]1[C@H]([C@H](O)[C@H](O)CNC(=O)c2ccc3nsnc3c2)O[C@@](CCN2CCOC[C@@]23CCN(C(=O)OC(C)(C)C)C3)(C(=O)O)C[C@@H]1O [A-153]
DSF (dTmD) [1, 4]: 10.1
EC50 [2]: 196 nM

CC(=O)N[C@H]1[C@H]([C@H](O)[C@H](O)CNC(=O)c2ccc(C)c(C)c2)O[C@@](CCN2CCOC[C@@]23CCN(C(=O)OC(C)(C)C)C3)(C(=O)O)C[C@@H]1O [A-180]
DSF (dTmD) [1, 4]: 10.9
EC50 [2]: 74 nM
